Results on 30 compounds are retold here after US10239843B2 (CANCER RESEARCH TECHNOLOGY LIMITED, priority 2014, dated 2019).

Where two headings read alike, the source gives them in different places.

In one test the test system is PARG in HeLa cell line. Description: PARG cell assay (PAR chain immunofluorescence after MMS). The settings on record: HeLa cells. In kind it is cell-based. In outline: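 Nuclear poly(ADP-ribose) chains in HeLa cells are read by indirect immunofluorescence with a mouse anti-PAR antibody applied overnight at 4° C after fixing and permeabilising. Cells get 1 h of compound, then 50 μg/mL MMS (final) for another hour. PAR persisting at that point reflects PARG inhibition.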

Another test deals with Human Full Length PARG (Homo sapiens (Human), UniProt Q86W56). The test can be described thus: PARG enzyme assay (TR-FRET). In kind it is biochemical. In general terms: Time-resolved FRET reads energy transfer from a long-lived donor to a nearby acceptor.
Sequence of Human Full Length PARG (Q86W56 whole entry): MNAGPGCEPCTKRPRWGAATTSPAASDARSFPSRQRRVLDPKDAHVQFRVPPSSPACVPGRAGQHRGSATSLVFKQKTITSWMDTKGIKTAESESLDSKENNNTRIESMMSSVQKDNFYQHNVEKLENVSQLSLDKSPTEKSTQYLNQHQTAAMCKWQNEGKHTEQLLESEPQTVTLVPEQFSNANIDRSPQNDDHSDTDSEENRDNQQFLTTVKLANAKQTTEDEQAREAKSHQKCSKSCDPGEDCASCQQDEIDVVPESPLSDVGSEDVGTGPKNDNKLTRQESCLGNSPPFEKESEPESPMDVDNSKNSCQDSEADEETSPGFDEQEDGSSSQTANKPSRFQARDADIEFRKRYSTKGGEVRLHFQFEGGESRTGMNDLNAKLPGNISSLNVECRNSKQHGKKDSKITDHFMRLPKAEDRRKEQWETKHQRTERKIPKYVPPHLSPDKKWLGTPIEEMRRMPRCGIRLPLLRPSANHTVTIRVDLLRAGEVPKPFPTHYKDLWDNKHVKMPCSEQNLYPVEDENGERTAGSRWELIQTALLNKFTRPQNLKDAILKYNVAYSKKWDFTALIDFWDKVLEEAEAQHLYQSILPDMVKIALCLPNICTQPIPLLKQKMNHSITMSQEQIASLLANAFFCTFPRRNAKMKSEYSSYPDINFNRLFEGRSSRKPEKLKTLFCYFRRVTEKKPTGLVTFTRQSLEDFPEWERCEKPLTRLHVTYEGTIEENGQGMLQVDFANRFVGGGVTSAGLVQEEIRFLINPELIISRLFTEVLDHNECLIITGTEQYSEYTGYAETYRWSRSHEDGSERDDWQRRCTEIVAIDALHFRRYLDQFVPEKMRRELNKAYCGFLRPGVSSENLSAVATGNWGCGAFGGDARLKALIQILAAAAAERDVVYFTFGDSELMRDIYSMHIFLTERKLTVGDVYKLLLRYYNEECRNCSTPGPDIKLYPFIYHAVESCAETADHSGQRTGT
The mark [1] stands for this setting: Homo sapiens, MMS treatment, read-out: PARG Cell IC50.
Where [2] appears, read: Homo sapiens, MMS 50 μg/mL, read-out: PARG Cell IC50 Geomean.
Setting [3] is: read-out: PARG Biochem IC50 Geomean.
The mark [4] stands for this setting: MMS treatment, read-out: PARG Cell IC50.

On to `Cc1nc(Cn2c(=O)n(Cc3cnn(C)c3)c(=O)c3cc(S(=O)(=O)NC4(CF)CC4)ccc32)no1` [Example 546, N-[1-(Fluoromethyl)cyclopropyl]-1-[(5-methyl-1,2,4-oxadiazol-3-yl)methyl]-3-[(1-methylpyrazol-4-yl)methyl]-2,4-dioxo-quinazoline-6-sulfonamide], for which the figures for the IC50 with PARG in HeLa cell line (setting [1]) and at Human Full Length PARG (read-out: PARG Biochem IC50) were 182 nM and 152 nM, respectively.

Consider `Cc1cc(Cn2c(=O)c3cc(S(=O)(=O)NC4(CF)CC4)ccc3n(Cc3nncn3C)c2=O)on1` [Example 551, N-[1-(Fluoromethyl)cyclopropyl]-3-[(3-methylisoxazol-5-yl)methyl]-1-[(4-methyl-1,2,4-triazol-3-yl)methyl]-2,4-dioxo-quinazoline-6-sulfonamide], for which the results for the IC50 in the test with PARG in HeLa cell line (setting [1]) and on Human Full Length PARG (read-out: PARG Biochem IC50) were 20400 nM and 404 nM, respectively.

On to `Cc1cc(Cn2c(=O)c3cc(S(=O)(=O)NC4(C)CC4)ccc3n(CCO)c2=O)on1` [Example 337], for which the IC50 in the test with PARG in HeLa cell line (setting [2]) stood at 772 nM; on Human Full Length PARG (setting [3]), 417 nM.

Regarding `CC(C)n1c(=O)n(Cc2cnn(C)c2)c(=O)c2cc(S(=O)(=O)NC3(C)CC3)ccc21` [Example 292], the IC50 stood at 221 nM in the test on PARG in HeLa cell line (setting [2]) and 341 nM on Human Full Length PARG (setting [3]).

As for `Cc1ncc(Cn2c(=O)n(Cc3cnn(C)c3)c(=O)c3cc(S(=O)(=O)NC4(CF)CC4)ccc32)s1` [Example 594, N-[1-(Fluoromethyl)cyclopropyl]-3-[(1-methylpyrazol-4-yl)methyl]-1-[(2-methylthiazol-5-yl)methyl]-2,4-dioxo-quinazoline-6-sulfonamide], the IC50 with PARG in HeLa cell line (setting [1]) is 22 nM; on Human Full Length PARG (read-out: PARG Biochem IC50) it was 25 nM.

`Cn1cc(Cn2c(=O)c3cc(S(=O)(=O)NC4(C)CC4)ccc3n(CCC3CC3)c2=O)cn1` [Example 296]: the IC50 was 70 nM with PARG in HeLa cell line (setting [2]) and 73 nM at Human Full Length PARG (setting [3]).

For `Cc1cc(Cn2c(=O)n(Cc3cnn(C)c3)c(=O)c3cc(S(=O)(=O)NC4(CF)CC4)ccc32)ccn1` [Example 541, N-[1-(Fluoromethyl)cyclopropyl]-3-[(1-methylpyrazol-4-yl)methyl]-1-[(2-methyl-4-pyridyl)methyl]-2,4-dioxo-quinazoline-6-sulfonamide], the concentration for half-maximal inhibition (IC50) in the test with PARG in HeLa cell line (setting [1]) was determined as 227 nM; on Human Full Length PARG (read-out: PARG Biochem IC50), 113 nM.

As for `Cc1cc(Cn2c(=O)c3cc(S(=O)(=O)NC4(C)CC4)ccc3n(CC3CC(C)(C)C3)c2=O)on1` [Example 477, 1-[(3,3-Dimethylcyclobutyl)methyl]-N-(1-methylcyclopropyl)-3-[(3-methylisoxazol-5-yl)methyl]-2,4-dioxo-quinazoline-6-sulfonamide], the 50% inhibitory concentration (IC50) in the test with PARG in HeLa cell line (setting [4]) amounted to 403 nM; at Human Full Length PARG (read-out: PARG Biochem IC50) it was 208 nM.

Regarding `Cc1cc(Cn2c(=O)n(Cc3cnn(C)c3)c(=O)c3cc(S(=O)(=O)NC4(C(F)(F)F)CC4)ccc32)n(C)n1` [Example 485, 1-[(2,5-Dimethylpyrazol-3-yl)methyl]-3-[(1-methylpyrazol-4-yl)methyl]-2,4-dioxo-N-[1-(trifluoromethyl)cyclopropyl]quinazoline-6-sulfonamide], the values for the IC50 in the test with PARG in HeLa cell line (setting [4]) and at Human Full Length PARG (read-out: PARG Biochem IC50) were 4070 nM and 7100 nM, respectively.

Turning to `Cc1cc(Cn2c(=O)c3cc(S(=O)(=O)NC4(CF)CC4)ccc3n(Cc3nncs3)c2=O)on1` [Example 627, N-[1-(Fluoromethyl)cyclopropyl]-3-[(3-methylisoxazol-5-yl)methyl]-2,4-dioxo-1-(1,3,4-thiadiazol-2-ylmethyl)quinazoline-6-sulfonamide], the results for the concentration for half-maximal inhibition (IC50) in the test with PARG in HeLa cell line (setting [1]) and on Human Full Length PARG (read-out: PARG Biochem IC50) were 351 nM and 159 nM, respectively.

In the case of `Cc1ncc(Cn2c(=O)c3cc(S(=O)(=O)NC4(C#N)CC4)ccc3n(Cc3cnn(C)c3)c2=O)s1` [Example 457, N-(1-Cyanocyclopropyl)-1-[(1-methylpyrazol-4-yl)methyl]-3-[(2-methylthiazol-5-yl)methyl]-2,4-dioxo-quinazoline-6-sulfonamide], the half-maximal inhibitory concentration (IC50) in the test with PARG in HeLa cell line (setting [1]) came out at 494 nM; on Human Full Length PARG (read-out: PARG Biochem IC50), 42 nM.

Turning to `Cc1cc(Cn2c(=O)c3cc(S(=O)(=O)NC4(C)CC4)ccc3n(CC3CC(F)(F)C3)c2=O)on1` [Example 363], the IC50 with PARG in HeLa cell line (setting [2]) amounted to 382 nM; on Human Full Length PARG (setting [3]) it was 353 nM.

With `C#CCn1c(=O)n(Cc2cnn(C)c2)c(=O)c2cc(S(=O)(=O)NC3(C)CC3)ccc21` [Example 178], the IC50 in the test with PARG in HeLa cell line (setting [2]) came to 126 nM; on Human Full Length PARG (setting [3]), 52 nM.

Turning to `Cc1cc(Cn2c(=O)n(Cc3nnc(C)s3)c(=O)c3cc(S(=O)(=O)NC4(C)CC4)ccc32)n(C)n1` [Example 615, 1-[(2,5-Dimethylpyrazol-3-yl)methyl]-N-(1-methylcyclopropyl)-3-[(5-methyl-1,3,4-thiadiazol-2-yl)methyl]-2,4-dioxo-quinazoline-6-sulfonamide], the IC50 in the test with PARG in HeLa cell line (setting [1]) is 274 nM; on Human Full Length PARG (read-out: PARG Biochem IC50) it was 64 nM.

Regarding `COCCn1c(=O)n(Cc2cc(C)no2)c(=O)c2cc(S(=O)(=O)NC3(C)CC3)ccc21` [Example 274], the IC50 worked out at 166 nM in the test on PARG in HeLa cell line (MMS 50 μg/mL, read-out: PARG Cell IC50 Geomean) and 237 nM at Human Full Length PARG (setting [3]).

Turning to `C#CCn1c(=O)n(Cc2cnn(C)c2)c(=O)c2cc(S(=O)(=O)NC3(C#N)CC3)ccc21` [Example 355], the IC50 in the test on PARG in HeLa cell line (setting [2]) came out at 953 nM; at Human Full Length PARG (setting [3]), 122 nM.

Consider `CON(C)C(=O)c1cc(S(=O)(=O)NC2(C)CC2)cc2c(=O)n(Cc3cnn(C)c3)c(=O)[nH]c12` [Example 451, N-Methoxy-N-methyl-6-[(1-methylcyclopropyl)sulfamoyl]-3-[(1-methylpyrazol-4-yl)methyl]-2,4-dioxo-1H-quinazoline-8-carboxamide], for which the IC50 in the test with PARG in HeLa cell line (setting [1]) amounted to 4500 nM; at Human Full Length PARG (read-out: PARG Biochem IC50), 3850 nM.

With `Cc1cc(Cn2c(=O)c3cc(S(=O)(=O)NC4(C)CC4)ccc3n(Cc3cnn(C(C)C)c3)c2=O)on1` [Example 473, 1-[(1-Isopropylpyrazol-4-yl)methyl]-N-(1-methylcyclopropyl)-3-[(3-methylisoxazol-5-yl)methyl]-2,4-dioxo-quinazoline-6-sulfonamide], the results for the IC50 in the test with PARG in HeLa cell line (setting [4]) and at Human Full Length PARG (read-out: PARG Biochem IC50) were 144 nM and 196 nM, respectively.

Regarding `COCCn1c(=O)n(Cc2cnn(C)c2)c(=O)c2cc(S(=O)(=O)NC3(C)CC3)ccc21` [Example 270], the IC50 is 102 nM with PARG in HeLa cell line (setting [2]) and 128 nM at Human Full Length PARG (setting [3]).

As to `Cn1cc(Cn2c(=O)c3cc(S(=O)(=O)NC4(CF)CC4)ccc3n(Cc3ncnn3C)c2=O)cn1` [Example 562, N-[1-(Fluoromethyl)cyclopropyl]-3-[(1-methylpyrazol-4-yl)methyl]-1-[(2-methyl-1,2,4-triazol-3-yl)methyl]-2,4-dioxo-quinazoline-6-sulfonamide], the IC50 with PARG in HeLa cell line (setting [4]) was found to be 598 nM; at Human Full Length PARG (read-out: PARG Biochem IC50), 192 nM.

In the case of `Cc1cc(Cn2c(=O)c3cc(S(=O)(=O)NC4(C)CC4)ccc3n(Cc3nc(C)no3)c2=O)on1` [Example 252], the IC50 in the test with PARG in HeLa cell line (setting [2]) stood at 297 nM; at Human Full Length PARG (setting [3]), 391 nM.

With `Cc1cc(Cn2c(=O)c3cc(S(=O)(=O)NC4(CF)CC4)ccc3n(Cc3noc(C)n3)c2=O)on1` [Example 558, N-[1-(Fluoromethyl)cyclopropyl]-3-[(3-methylisoxazol-5-yl)methyl]-1-[(5-methyl-1,2,4-oxadiazol-3-yl)methyl]-2,4-dioxo-quinazoline-6-sulfonamide], the 50% inhibitory concentration (IC50) in the test on PARG in HeLa cell line (setting [1]) came to 177 nM; at Human Full Length PARG (read-out: PARG Biochem IC50), 207 nM.

As to `COC(=O)c1cc(S(=O)(=O)NC2(C)CC2)cc2c(=O)n(Cc3cnn(C)c3)c(=O)[nH]c12` [Example 448, Methyl 6-[(1-methylcyclopropyl)sulfamoyl]-3-[(1-methylpyrazol-4-yl)methyl]-2,4-dioxo-1H-quinazoline-8-carboxylate], the IC50 in the test on PARG in HeLa cell line (setting [4]) was found to be 329 nM; on Human Full Length PARG (read-out: PARG Biochem IC50), 424 nM.

With `Cn1cc(Cn2c(=O)c3cc(S(=O)(=O)NC4(C)CC4)ccc3n(CC3CCSCC3)c2=O)cn1` [Example 380], the concentration for half-maximal inhibition (IC50) came to 90 nM in the test with PARG in HeLa cell line (setting [2]) and 59 nM on Human Full Length PARG (setting [3]).

On to `Cc1cc(Cn2c(=O)n(Cc3cnn(C)c3)c(=O)c3cc(S(=O)(=O)NC4(CF)CC4)ccc32)n(C)n1` [Example 437, 1-[(2,5-Dimethylpyrazol-3-yl)methyl]-N-[1-(fluoromethyl)cyclopropyl]-3-[(1-methylpyrazol-4-yl)methyl]-2,4-dioxo-quinazoline-6-sulfonamide], for which the IC50 amounted to 165 nM with PARG in HeLa cell line (setting [1]) and 23 nM at Human Full Length PARG (read-out: PARG Biochem IC50).

For `Cc1ccc(Cn2c(=O)n(Cc3cnn(C)c3)c(=O)c3cc(S(=O)(=O)NC4(CF)CC4)ccc32)cn1` [Example 573, N-[1-(Fluoromethyl)cyclopropyl]-3-[(1-methylpyrazol-4-yl)methyl]-1-[(6-methyl-3-pyridyl)methyl]-2,4-dioxo-quinazoline-6-sulfonamide], the IC50 in the test on PARG in HeLa cell line (setting [1]) came out at 167 nM; at Human Full Length PARG (read-out: PARG Biochem IC50), 71 nM.

With `CCn1c(=O)n(Cc2cnn(C)c2)c(=O)c2cc(S(=O)(=O)NC3(CF)CC3)ccc21` [Example 438, 1-Ethyl-N-[1-(fluoromethyl)cyclopropyl]-3-[(1-methylpyrazol-4-yl)methyl]-2,4-dioxo-quinazoline-6-sulfonamide], the half-maximal inhibitory concentration (IC50) in the test with PARG in HeLa cell line (setting [1]) was determined as 84 nM; at Human Full Length PARG (read-out: PARG Biochem IC50), 106 nM.

`Cc1cc(Cn2c(=O)c3cc(S(=O)(=O)NC4(CF)CC4)ccc3n(Cc3cc(C)no3)c2=O)on1` [Example 521, N-[1-(Fluoromethyl)cyclopropyl]-1,3-bis[(3-methylisoxazol-5-yl)methyl]-2,4-dioxo-quinazoline-6-sulfonamide]: the half-inhibitory concentration (IC50) with PARG in HeLa cell line (setting [1]) came to 92 nM; on Human Full Length PARG (read-out: PARG Biochem IC50) it was 54 nM.

On to `Cn1cc(Cn2c(=O)c3cc(S(=O)(=O)NC4(CF)CC4)ccc3n(CCF)c2=O)cn1` [Example 544, 1-(2-Fluoroethyl)-N-[1-(fluoromethyl)cyclopropyl]-3-[(1-methylpyrazol-4-yl)methyl]-2,4-dioxo-quinazoline-6-sulfonamide], for which the values for the IC50 in the test on PARG in HeLa cell line (setting [1]) and at Human Full Length PARG (read-out: PARG Biochem IC50) were 86 nM and 151 nM, respectively.

As to `Cc1cc(Cn2c(=O)c3cc(S(=O)(=O)NC4(C)CC4)ccc3n(CC3CCC(F)(F)CC3)c2=O)on1` [Example 405, 1-[(4,4-Difluorocyclohexyl)methyl]-N-(1-methylcyclopropyl)-3-[(3-methylisoxazol-5-yl)methyl]-2,4-dioxo-quinazoline-6-sulfonamide], the figures for the IC50 in the test on PARG in HeLa cell line (setting [1]) and at Human Full Length PARG (read-out: PARG Biochem IC50) were 144 nM and 248 nM, respectively.

As a reminder, the IC50 is the point on the concentration scale where inhibition reaches its midpoint.
